Laboratory results: patent US5750391A, “Filariid nematode cysteine protease proteins” (Heska Corporation, priority 1995, dated 1998)
Entries after “also recorded” stand apart in the source; their conditions may differ. Where two headings read alike, the source gives them in different places.

Tests used:
astacin = conditions: cited from earlier work
D. immitis larvae = assay: Effect of protease inhibitors on larval molting (L3 cultured in NI medium); assay type: cell-based, Dirofilaria immitis; conditions: for % molt: L3 larvae, 72 hours, 37° C.; for inhibition at 1000 µM / inhibition at 2500 µM / inhibition at 5000 µM: Dirofilaria immitis, 72 h, read-out: % reduction (of molt vs control)

Row | SMILES | inhibition of astacin activity (astacin) | % molt (D. immitis larvae; 1.0 mM inhibitor) | % molt (D. immitis larvae; 2.5 mM inhibitor) | % molt (D. immitis larvae; 5.0 mM inhibitor) | inhibition at 1000 µM (D. immitis larvae) | inhibition at 2500 µM (D. immitis larvae) | inhibition at 5000 µM (D. immitis larvae) | movement of treated larvae compared to controls (D. immitis larvae; observed daily throughout the study) | ability of the larvae to molt (D. immitis larvae; treatment of L3, 1 to 5 mM) | ability of the larvae to molt (D. immitis larvae) | condition of treated larvae (D. immitis larvae) | movement of treated larvae compared to controls (D. immitis larvae)
1 | c1cnc2c(c1)ccc1cccnc12 [1,10-phenanthroline] | inhibited | – | – | – | – | – | – | – | – | – | – | –
2 | CC(C)C[C@H](NC(=O)[C@@H](O)[C@H](N)Cc1ccccc1)C(=O)O [Bestatin] | – | 60.0% | 34.8% | 4.9% | 27.3% | 57.9% | 94.1% | moved much more slowly | inhibit molting; also recorded: significantly reduces the ability of the larvae to molt | – | – | –
3 | O=C(O)CN(CCN(CC(=O)O)CC(=O)O)CC(=O)O [EDTA, ethylene diamine tetraacetic acid] | inhibited | – | – | – | – | – | – | – | – | – | – | –
4 | CC(C)C[C@H](NP(=O)(O)O[C@@H]1O[C@@H](C)[C@H](O)[C@@H](O)[C@H]1O)C(=O)N[C@@H](Cc1c[nH]c2ccccc12)C(=O)O [Phosphoramidon] | not by phosphoramidon | – | – | – | 48.4% | 85.1% | 100% | – | – | inhibit molting; also recorded: significantly reduces the ability of the larvae to molt | in poor shape | very active
